What all share (experiment): growth of human tumour cells (NCI), 48 h
Assay [1] concerns A549.
Assay [2] deals with BT-549.
The test system of assay [3] is COLO 205.
Assay [4] deals with DU-145.
The test system of assay [5] is HCC 2998.
In assay [6] the test system is HOP-62.
The test system of assay [7] is HT-29.
The test system of assay [8] is Hs-578T.
Assay [9] deals with K562.
Assay [10] deals with KM12.
For assay [11], the system named is MDA-MB-231.
The subject of assay [12] is MDA-MB-435.
The subject of assay [13] is NCI-H460.
Assay [14] concerns SF-268.
In assay [15] the test system is SK-MEL-28.
The subject of assay [16] is SR.
In assay [17] the test system is UACC-62.
Assay [18] deals with A498.
Assay [19] relates to LOX IMVI.
The subject of assay [20] is Malme-3M.

This note sets out measurements from ChEMBL document CHEMBL1201862, “PubChem BioAssay data set” (2004).

Molecules are shown by their SMILES.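 Cultured in 96-well plates, cells were exposed to test compound for 48 hours across five concentrations. Here, GI50 denotes the concentration required for 50% inhibition of growth.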 Calls of active or inactive are those of the source. Cut-off read from the data, not from the text of the source: active = GI50 up to about 1.1 µM and inactive = higher. A value given as a limit tells only on which side of the number the result lay.

With `Clc1cc(N/N=C(/c2ccccc2)c2ncccn2)ncn1`, the GI50 in assay [1] was 26 µM (inactive); in assay [2], 38.5 µM (inactive); in assay [3], 4.29 µM (inactive); in assay [4] it was 39.2 µM (inactive); in [5], 70.3 µM (inactive); in assay [6], 26.8 µM (inactive). The GI50 was 2.58 µM (inactive) in assay [7]; 24.5 µM (inactive) in assay [8]; 9.1 µM (inactive) in [9]; 43 µM (inactive) in [10]; 20.2 µM (inactive) in assay [11]; 48.3 µM (inactive) in [12]. Moreover, the GI50 is 19.3 µM (inactive) in [13]; 34 µM (inactive) in assay [14]; 36.9 µM (inactive) in assay [15]; 30.2 µM (inactive) in assay [16]; 32.2 µM (inactive) in [17].
For `C1CSCCCSCCCSCCCSCCCSCCCSCCCSCCCSC1`, the GI50 in assay [18], in [1], in assay [2], in assay [3], in assay [4] and in [5] was > 100 µM (inactive) each time. Further, the GI50 in assay [6], in assay [7], in [8], in assay [9], in [10] and in assay [19] was > 100 µM (inactive) in each case. For the same molecule, the GI50 in assay [11], in [12], in assay [20], in [13], in [14] and in assay [15] was > 100 µM (inactive) throughout.
Regarding `C[S+]([O-])c1ncc2c(n1)-c1ccccc1OC2` (stereo not drawn), the GI50 was > 100 µM (inactive) in assay [1]; > 100 µM (inactive) in [2]; 68.1 µM (inactive) in assay [3]; 38.6 µM (inactive) in assay [4]; 38.4 µM (inactive) in assay [5]; > 100 µM (inactive) in [6]. Besides, the GI50 in [7] was 61.5 µM (inactive); in assay [8], 63.4 µM (inactive); in [9], > 100 µM (inactive); in assay [10], > 100 µM (inactive); in assay [19], > 100 µM (inactive); in assay [11], > 100 µM (inactive). In addition, the GI50 in assay [12], in assay [20], in [13], in [14], in assay [15] and in assay [16] was > 100 µM (inactive) in each case. For the same molecule, the GI50 in [17] is 92.3 µM (inactive).
For the molecule `CCOC(=O)c1c[nH]cc1-c1cn(S(=O)(=O)c2ccccc2)cc1C`, the GI50 in assay [18] is > 10 µM (inactive); in assay [1], 30.5 µM (inactive); in [2] it was 27.1 µM (inactive); in [3], 20.1 µM (inactive); in assay [4] it was 50.7 µM (inactive); in [5] it was 17.5 µM (inactive). The GI50 in assay [6] is 31.5 µM (inactive); in assay [7], 21.2 µM (inactive); in assay [8], 11.9 µM (inactive); in assay [9] it was 19.1 µM (inactive); in [10], 19.6 µM (inactive); in assay [19], 23.4 µM (inactive). In addition, the GI50 in assay [11] was 20.5 µM (inactive); in assay [12], > 10 µM (inactive); in assay [20] it was 15 µM (inactive); in [13], 18.4 µM (inactive); in assay [14] it was 25.9 µM (inactive); in [15], 19.8 µM (inactive). Also, the GI50 in assay [17] was 15.3 µM (inactive).
In the case of `C=C1c2ccccc2C(=O)c2c1c1c(C(=O)OC)c(O)ccc1n2Cc1ccccc1`, the GI50 in assay [1] was 1.11 µM (active); in assay [2], 0.585 µM (active); in assay [3], 1.97 µM (inactive); in [4], 0.242 µM (active); in assay [6], 0.516 µM (active); in [7] it was 0.163 µM (active). Moreover, the GI50 in assay [8] is 0.297 µM (active); in [9] it was 0.323 µM (active); in assay [10], 0.459 µM (active); in [19], 0.297 µM (active); in [11], 0.355 µM (active); in [12], 0.255 µM (active). In addition, the GI50 is 0.445 µM (active) in [20]; 0.908 µM (active) in [13]; 0.175 µM (active) in assay [14]; 0.31 µM (active) in assay [15]; 0.132 µM (active) in [16]; 0.284 µM (active) in assay [17].
With `O=S(=O)(c1ccccc1)n1c(C(O)c2ccccc2)cc2ccccc21` (stereo not drawn), the GI50 is 10.2 µM (inactive) in assay [18]; 14.5 µM (inactive) in assay [1]; 15.8 µM (inactive) in assay [2]; 15.9 µM (inactive) in assay [3]; 33.9 µM (inactive) in assay [4]; 17.5 µM (inactive) in assay [5]. Also, the GI50 was 17.9 µM (inactive) in [6]; 13.4 µM (inactive) in assay [7]; 10.9 µM (inactive) in assay [8]; 49.4 µM (inactive) in assay [9]; 15 µM (inactive) in assay [10]; 30.1 µM (inactive) in [19]. For the same molecule, the GI50 in [11] is 17.3 µM (inactive); in [12], 16.6 µM (inactive); in [20], 18.3 µM (inactive); in assay [13] it was 25.3 µM (inactive); in assay [14], 16.3 µM (inactive); in assay [15] it was 19.6 µM (inactive). In assay [17], the GI50 was 12.9 µM (inactive).
For the molecule `Nc1ncnc2c1N=C(c1ccccc1)CC(c1ccccc1)N2` (stereo not drawn), the GI50 in assay [1] was > 100 µM (inactive); in [2] it was > 100 µM (inactive); in assay [3], > 100 µM (inactive); in assay [4], > 100 µM (inactive); in [5], > 100 µM (inactive); in assay [6], 97.5 µM (inactive). Also, the GI50 is > 100 µM (inactive) in assay [7]; 39.4 µM (inactive) in [8]; > 100 µM (inactive) in assay [9]; > 100 µM (inactive) in assay [10]; > 100 µM (inactive) in [19]; > 100 µM (inactive) in [11]. The GI50 in assay [12], in [20], in [14], in assay [15], in [16] and in assay [17] was > 100 µM (inactive) throughout.
For the molecule `COc1ccc(NC(=O)/C(=N\NC(=O)C[n+]2ccccc2)c2c(O)c3ccc(O)cc3oc2=O)c([N+](=O)[O-])c1`, the GI50 in assay [18] was 75.7 µM (inactive); in assay [1] it was > 100 µM (inactive); in [2], > 100 µM (inactive); in assay [3], > 100 µM (inactive); in assay [4], > 100 µM (inactive); in [5] it was > 100 µM (inactive). Moreover, the GI50 in [7] is > 100 µM (inactive); in assay [8] it was > 100 µM (inactive); in [9], > 100 µM (inactive); in [10], 40.1 µM (inactive); in [19] it was > 100 µM (inactive); in assay [11], > 100 µM (inactive). In addition, the GI50 in assay [12], in assay [20], in assay [13], in assay [14], in assay [15] and in assay [17] was > 100 µM (inactive) throughout.
As to `CN(c1ccc(Cl)cc1)S(=O)(=O)c1cccc([N+](=O)[O-])c1`, the GI50 in [1] was > 100 µM (inactive); in assay [2], 32.7 µM (inactive); in assay [3] it was 65 µM (inactive); in [4] it was > 100 µM (inactive); in assay [5], 79.1 µM (inactive); in assay [6] it was 89.3 µM (inactive). The GI50 in assay [7] was 22.5 µM (inactive); in [8], > 100 µM (inactive); in assay [9], 26.9 µM (inactive); in [10] it was 52.6 µM (inactive); in assay [19], 41.9 µM (inactive); in assay [11], 44 µM (inactive). The GI50 in assay [12] was 34.8 µM (inactive); in assay [20], 69.2 µM (inactive); in [13], 42.3 µM (inactive); in assay [14], 66.7 µM (inactive); in assay [15], 95.9 µM (inactive); in [16], 52.6 µM (inactive). In addition, in [17], the GI50 is 39.4 µM (inactive).
Consider `C#CCSc1cnc2ccccc2c1Sc1c[nH]c2ccccc2c1=O`, for which the GI50 in assay [1] is 14.4 µM (inactive); in [2], 28.7 µM (inactive); in assay [3], 24 µM (inactive); in assay [4], 51.3 µM (inactive); in [5], 17.9 µM (inactive); in [6] it was 26.5 µM (inactive). For the same molecule, the GI50 in assay [7] was 21.2 µM (inactive); in assay [8], 48.2 µM (inactive); in [9] it was 9.35 µM (inactive); in [10], 21.1 µM (inactive); in [19], 13.8 µM (inactive); in assay [11], 31.9 µM (inactive). Also, the GI50 in assay [12] is 23.6 µM (inactive); in assay [20], 19.4 µM (inactive); in [13], 11.7 µM (inactive); in assay [14], 29.9 µM (inactive); in assay [15] it was 34.8 µM (inactive); in [16] it was 3.86 µM (inactive). Besides, in [17], the GI50 is 17.1 µM (inactive).
For the molecule `COc1cccc(-c2cc(=O)c3ccccc3o2)c1N`, the GI50 is > 91.8 µM (inactive) in assay [1]; > 100 µM (inactive) in [2]; 9.93 µM (inactive) in assay [3]; > 100 µM (inactive) in [4]; 28.2 µM (inactive) in assay [5]; 18.3 µM (inactive) in [6]. For the same molecule, the GI50 was 12.8 µM (inactive) in assay [7]; 71.9 µM (inactive) in assay [8]; > 75.3 µM (inactive) in [9]; > 100 µM (inactive) in [10]; > 100 µM (inactive) in assay [19]; 26.9 µM (inactive) in [11]. Moreover, the GI50 is 23 µM (inactive) in assay [12]; 3.62 µM (inactive) in [20]; > 59 µM (inactive) in assay [13]; 61.2 µM (inactive) in assay [14]; 10.1 µM (inactive) in assay [15]; > 100 µM (inactive) in assay [16]. The GI50 in assay [17] was 5.27 µM (inactive).
